The target of series [1] is T1, HCV NS3-4A serine protease (full-length NS3-4A protein, genotype 1a, strain HCV-1) (Hepatitis C virus genotype 1a, UniProt P26664).
T1 construct: using the full-length NS3-4A protein (genotype 1a, strain HCV-1)
Put plainly: HCV NS3-4A protease assay. The following applies: Protease IC50. The format is biochemical. On the procedure:
The inhibitory activity of certain compounds of Table A against HCV NS3-4A serine protease is determined in a homogenous assay using the full-length NS3-4A protein (genotype 1a, strain HCV-1) and a commercially available internally-quenched fluorogenic peptide substrate as described by Taliani, M., et al. 1996 Anal. Biochem. 240:60-67, which is incorporated by reference in its entirety.

Series [2] is described as follows: Measurement of thermodynamic solubility. Type of series: physicochemical. The settings on record: thermodynamic from solid, read-out: solubility in water. On the procedure:
Thermodynamic solubility for the compounds of the invention listed in Table C is measured by a published literature procedure, e.g., Liping Zhou, et al., J. Pharm. Sci (2007) 96(11): 3052-3071.
The DMSO stocks of test compounds previously dissolved in 25 μL of DMSO (˜10 mM) in mini-prep vial (MPV: Whatman, with PVDF filter and 0.45 μm pore size) chamber were evaporated via a GeneVac HT-4X evaporator for approximately 1 hour, at the guard temperature of 30° C. An aliquot of 250 μL buffer solution (pH 1.0 or 6.8) was added into each MPV chamber containing powders reconstituted from DMSO stock solutions. The MPV filter plungers were pushed down into the chamber until the membrane of the filter plunger slightly touched the surface of the buffer to promote equilibrium between the two compartments and to minimize the adsorption due to non-specific binding of samples during the subsequent 24-hr incubation (at 600 RPM at room temperature). Immediately after the 24-hr incubation, the plungers were further pushed down to the bottom of the chambers. More solution was pushed through the membrane and entered the plunger compartment. The filter/chamber assemblies were then put on a shaker for another 30 minutes at 600 RPM. Afterwards, filtrates were further diluted (1:10) with 50/50 acetonitrile/water solvent followed by a thorough mixing process. Both plates with diluted and undiluted filtrates were analyzed by HPLC and quantified against the four-point standard dilution curve of the same test compound (5 μM, 35 μM, 65 μM and 100 μM, respectively). In the current study, solubility reflects the average of triplicate samples tested at each pH.

Another series can be described thus: in vivo. The settings on record: rat; for Cmax: po, 10 mg/kg. Further details: species or system Sprague Dawley rats. On the procedure:
Certain compounds of Table A and Comparative Example 1 (Compound A-7 of copending international patent application serial no. PCT/EP08/063,460) are administered as a solution orally via gavage at 10 mg/kg to Sprague Dawley rats at a dosing volume of 10 ml/kg. Samples are collected via a surgically implanted cannula at selected timepoints deemed necessary to characterize pharmacokinetic parameters. Blood samples are placed on wet ice and spun down to plasma within 5 minutes of timepoint collection. Plasma samples are frozen until bioanalytical analysis.
Certain compounds of Table A and Comparative Example 1 are administered intravenously into a surgically implanted cannula as a solution at 1 mg/kg to Sprague Dawley rats at a dosing volume of […]. Samples are collected via another surgically implanted cannula at selected timepoints deemed necessary to characterize pharmacokinetic parameters. Blood samples are placed on wet ice and spun down to plasma within 5 minutes of timepoint collection. Plasma samples are frozen until bioanalytical analysis.

The mark [3] stands for this setting: pH 1, simulated gastric fluid, pH of about 1.
Setting [4] is: pH 6.8, aqueous buffer, pH of about 6.8.

Results on ten molecules are retold here after patent publication US20110182850A1, “ORGANIC COMPOUNDS AND THEIR USES” (priority 2009, published 2011).

The structures appear in SMILES notation. pIC50: −log10 of the molar value. Where two headings read alike, the source gives them in different places. Bounds are passed on as bounds.

T1 sequence (P26664 1658-1711): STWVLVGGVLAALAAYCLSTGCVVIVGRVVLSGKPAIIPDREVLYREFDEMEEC
T1 sequence (P26664 1027-1657): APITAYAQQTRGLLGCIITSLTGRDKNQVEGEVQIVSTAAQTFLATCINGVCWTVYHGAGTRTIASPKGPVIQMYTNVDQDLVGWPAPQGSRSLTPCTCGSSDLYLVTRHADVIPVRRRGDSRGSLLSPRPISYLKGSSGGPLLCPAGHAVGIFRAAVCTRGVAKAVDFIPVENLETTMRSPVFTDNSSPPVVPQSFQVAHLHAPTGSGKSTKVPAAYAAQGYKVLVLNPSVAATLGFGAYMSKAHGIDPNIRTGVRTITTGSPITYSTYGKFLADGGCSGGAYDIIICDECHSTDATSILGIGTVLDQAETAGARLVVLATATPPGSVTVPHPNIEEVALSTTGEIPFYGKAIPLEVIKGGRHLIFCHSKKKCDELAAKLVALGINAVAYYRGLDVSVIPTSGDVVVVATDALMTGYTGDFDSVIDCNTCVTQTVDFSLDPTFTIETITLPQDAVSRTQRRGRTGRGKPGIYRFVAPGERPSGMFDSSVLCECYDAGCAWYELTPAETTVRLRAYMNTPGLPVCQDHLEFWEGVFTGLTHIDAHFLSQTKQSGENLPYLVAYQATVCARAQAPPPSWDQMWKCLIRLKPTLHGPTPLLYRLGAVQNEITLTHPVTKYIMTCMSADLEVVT

In turn, `C=C[C@@H]1C[C@]1(NC(=O)[C@@H]1C[C@@]2(CN1C(=O)[C@@H](NC(=O)[C@@H](NC(=O)[C@@H]1CCCCN1C(C)C)C1CCCCC1)C(C)(C)C)C(C)(C)C21CCC1)C(=O)NS(=O)(=O)C1(C)CC1` [Compound 63, (5R,8S)-7-[(2S)-2-{[(2S)-2-cyclohexyl-2-({[(2S)-1-isopropylpiperidin-2-yl]carbonyl}amino)acetyl]amino}-3,3-dimethylbutanoyl]-10,10-dimethyl-N-[(1R,2S)-1-{[(1-methylcyclopropyl)sulfonyl]carbamoyl}-2-vinylcyclopropyl]-7-azadispiro[3.0.4.1]decane-8-carboxamide] had a pIC50 in series [1] of 8.74. The figures for the solubility at 24 h in series [2] (setting [3]) and in series [2] (setting [4]) were not below 100 µM and not below 30 µM, respectively. Moreover, the Cmax in the series “in vivo” (Sprague Dawley) turned out to be 320 nM.
The matching figures for `C=C[C@@H]1C[C@]1(NC(=O)[C@@H]1C[C@@]2(CN1C(=O)[C@@H](NC(=O)[C@@H](NC(=O)[C@@H]1CCCCN1C(C)C)C1CCCCC1)C(C)(C)C)C(C)(C)C21CCC1)C(=O)NS(=O)(=O)C1(CCC)CC1` [Compound 68, (5R,8S)-7-[(2S)-2-{[(2S)-2-cyclohexyl-2-({[(2S)-1-isopropylpiperidin-2-yl]carbonyl}amino)acetyl]amino}-3,3-dimethylbutanoyl]-10,10-dimethyl-N-[(1R,2S)-1-{[(1-propylcyclopropyl)sulfonyl]carbamoyl}-2-vinylcyclopropyl]-7-azadispiro[3.0.4.1]decane-8-carboxamide]: 8.40, not below 100 µM, not below 30 µM and 348 nM.
The matching figures for `CC[C@@H]1C[C@]1(NC(=O)[C@@H]1C[C@@]2(CN1C(=O)[C@@H](NC(=O)[C@@H](NC(=O)[C@@H]1CCCCN1C(C)C)C1CCCCC1)C(C)(C)C)C(C)(C)C21CCC1)C(=O)NS(=O)(=O)C1(C)CC1` [Compound 70, (5R,8S)-7-[(2S)-2-{[(2S)-2-cyclohexyl-2-({[(2S)-1-isopropylpiperidin-2-yl]carbonyl}amino)acetyl]amino}-3,3-dimethylbutanoyl]-N-[(1R,2R)-2-ethyl-1-{[(1-methylcyclopropyl)sulfonyl]carbamoyl}cyclopropyl]-10,10-dimethyl-7-azadispiro[3.0.4.1]decane-8-carboxamide]: 8.70, not below 100 µM, not below 30 µM and 130 nM.
The matching figures for `CCCC1(S(=O)(=O)NC(=O)[C@@]2(NC(=O)[C@@H]3C[C@@]4(CN3C(=O)[C@@H](NC(=O)[C@@H](NC(=O)[C@@H]3CCCN3CC)C3CCCCC3)C(C)(C)C)C(C)(C)C43CCC3)C[C@H]2CC)CC1` [Compound 75, (5R,8S)-7-[(2S)-2-{[(2S)-2-cyclohexyl-2-({[(2S)-1-ethylpyrrolidin-2-yl]carbonyl}amino)acetyl]amino}-3,3-dimethylbutanoyl]-N-[(1R,2R)-2-ethyl-1-{[(1-propylcyclopropyl)sulfonyl]carbamoyl}cyclopropyl]-10,10-dimethyl-7-azadispiro[3.0.4.1]decane-8-carboxamide]: 8.15, not below 100 µM, not below 30 µM and 289 nM.
Turning to `CCCC1(S(=O)(=O)NC(=O)[C@@]2(NC(=O)[C@@H]3C[C@@]4(CN3C(=O)[C@@H](NC(=O)[C@@H](NC(=O)[C@@H]3CCCCN3CC)C3CCCCC3)C(C)(C)C)C(C)(C)C43CCC3)C[C@H]2CC)CC1` [Compound 76, (5R,8S)-7-[(2S)-2-{[(2S)-2-cyclohexyl-2-({[(2S)-1-ethylpiperidin-2-yl]carbonyl}amino)acetyl]amino}-3,3-dimethylbutanoyl]-N-[(1R,2R)-2-ethyl-1-{[(1-propylcyclopropyl)sulfonyl]carbamoyl}cyclopropyl]-10,10-dimethyl-7-azadispiro[3.0.4.1]decane-8-carboxamide], the pIC50 in series [1] is 8.22. The solubility at 24 h is not below 100 µM in series [2] (setting [3]) and not below 30 µM in series [2] (setting [4]).
The matching figures for `CCCC1(S(=O)(=O)NC(=O)[C@@]2(NC(=O)[C@@H]3C[C@@]4(CN3C(=O)[C@@H](NC(=O)[C@@H](NC(=O)[C@@H]3CCCCN3C(C)C)C3CCCCC3)C(C)(C)C)C(C)(C)C43CCC3)C[C@H]2CC)CC1` [Compound 77, (5R,8S)-7-[(2S)-2-{[(2S)-2-cyclohexyl-2-({[(2S)-1-isopropylpiperidin-2-yl]carbonyl}amino)acetyl]amino}-3,3-dimethylbutanoyl]-N-[(1R,2R)-2-ethyl-1-{[(1-propylcyclopropyl)sulfonyl]carbamoyl}cyclopropyl]-10,10-dimethyl-7-azadispiro[3.0.4.1]decane-8-carboxamide]: 8.70, not below 100 µM and not below 30 µM.
In the case of `CC[C@@H]1C[C@]1(NC(=O)[C@@H]1C[C@@]2(CN1C(=O)[C@@H](NC(=O)[C@@H](NC(=O)[C@@H]1CCCN1CC)C1CCCCC1)C(C)(C)C)C(C)(C)C21CCC1)C(=O)NS(=O)(=O)C1(C)CC1` [Compound 81, (5R,8S)-7-[(2S)-2-{[(2S)-2-cyclohexyl-2-({[(2S)-1-ethylpyrrolidin-2-yl]carbonyl}amino)acetyl]amino}-3,3-dimethylbutanoyl]-N-[(1R,2R)-2-ethyl-1-{[(1-methylcyclopropyl)sulfonyl]carbamoyl}cyclopropyl]-10,10-dimethyl-7-azadispiro[3.0.4.1]decane-8-carboxamide], the pIC50 in series [1] was 9.22. Besides, the solubility at 24 h in series [2] (setting [3]) was not below 100 µM. In addition, the solubility at 24 h in series [2] (setting [4]) was not below 30 µM. In “in vivo” (Sprague Dawley), this molecule displayed a bioavailability of 22% and a Cmax of 692 nM.
`CC[C@@H]1C[C@]1(NC(=O)[C@@H]1C[C@@]2(CN1C(=O)[C@@H](NC(=O)[C@@H](NC(=O)[C@@H]1CCCN1C(C)C)C1CCCCC1)C(C)(C)C)C(C)(C)C21CCC1)C(=O)NS(=O)(=O)C1(C)CC1` [Compound 82, (5R,8S)-7-[(2S)-2-{[(2S)-2-cyclohexyl-2-({[(2S)-1-isopropylpyrrolidin-2-yl]carbonyl}amino)acetyl]amino}-3,3-dimethylbutanoyl]-N-[(1R,2R)-2-ethyl-1-{[(1-methylcyclopropyl)sulfonyl]carbamoyl}cyclopropyl]-10,10-dimethyl-7-azadispiro[3.0.4.1]decane-8-carboxamide]: in series [1], the pIC50 is 8.62. Also, the solubility at 24 h in series [2] (setting [3]) was not below 100 µM; in series [2] (setting [4]), not below 30 µM.
As for `CC[C@@H]1C[C@]1(NC(=O)[C@@H]1C[C@@]2(CN1C(=O)[C@@H](NC(=O)[C@@H](NC(=O)[C@@H]1CCCCN1CC)C1CCCCC1)C(C)(C)C)C(C)(C)C21CCC1)C(=O)NS(=O)(=O)C1(C)CC1` [Compound 83, (5R,8S)-7-[(2S)-2-{[(2S)-2-cyclohexyl-2-({[(2S)-1-ethylpiperidin-2-yl]carbonyl}amino)acetyl]amino}-3,3-dimethylbutanoyl]-N-[(1R,2R)-2-ethyl-1-{[(1-methylcyclopropyl)sulfonyl]carbamoyl}cyclopropyl]-10,10-dimethyl-7-azadispiro[3.0.4.1]decane-8-carboxamide], in series [1], the pIC50 was 8.60. Besides, the solubility at 24 h in series [2] (setting [3]) is not below 100 µM. The solubility at 24 h in series [2] (setting [4]) was not below 30 µM. In “in vivo” (Sprague Dawley), this molecule gave a bioavailability of 26% and a Cmax of 578 nM.
In “in vivo”, `C=C[C@@H]1C[C@]1(NC(=O)[C@@H]1C[C@@]2(CN1C(=O)[C@@H](NC(=O)OC(C)(C)C)C(C)C)C(C)(C)C21CCC1)C(=O)NS(=O)(=O)C1CC1` [compound 1, tert-butyl [(1S)-1-{[(5R,8S)-8-({(1R,2S)-1-[(cyclopropylsulfonyl)carba-moyl]-2-vinylcyclopropyl}carbamoyl)-10,10-dimethyl-7-azadispiro[3.0.4.1]dec-7-yl]carbonyl}-2-methylpropyl]carbamate, reference compound] showed a bioavailability of 2%.
